Data set [1] is described as follows: Stability of the compound in solid state assessed as compound hydrolysis. Type of data set: physicochemical.
Data set [2] can be described thus: Stability of the compound in pH 8.5 buffer assessed as compound hydrolysis measured over 12 hrs. Type of data set: physicochemical. The settings on record: read-out: Drug degradation.
Data set [3] is described as follows: Stability of the compound in pH 8.5 buffer assessed as compound hydrolysis at room temperature. The settings on record: read-out: Drug degradation. In kind it is physicochemical.
Data set [4] has as its system Mus musculus. In words: Inhibition of water toxicity in mouse water toxicity model assessed as time to 50% survival for animals at 0.76 mg/kg relative to control. In kind it is functional.
The test system of data set [5] is Mus musculus. The experiment in a line: Inhibition of water shock-induced cerebral edema in mouse water toxicity model assessed as reduction in extent of cerebral edema at 0.76 mg/kg by MRI analysis relative to control. In kind it is functional, organism-based.
Data set [6] in a line: Plasma concentration in mouse water toxicity model a at 0.76 mg/kg. The settings on record: in vivo. In kind it is organism-based.
Data set [7] deals with Aquaporin-4 (Homo sapiens) (UniProt P55087). The experiment in a line: Inhibition of AQP4 (unknown origin) expressed in CHO cells assessed as reduction in water shock-induced aquaporin-mediated cell bursting at 10 uM incubated for 30 mins by calcein-AM fluorescence end-point assay. Type of data set: cell-based.
For data set [8], the target named is T1, Aquaporin-2 (Homo sapiens) (UniProt P41181).
T1 sequence (whole entry): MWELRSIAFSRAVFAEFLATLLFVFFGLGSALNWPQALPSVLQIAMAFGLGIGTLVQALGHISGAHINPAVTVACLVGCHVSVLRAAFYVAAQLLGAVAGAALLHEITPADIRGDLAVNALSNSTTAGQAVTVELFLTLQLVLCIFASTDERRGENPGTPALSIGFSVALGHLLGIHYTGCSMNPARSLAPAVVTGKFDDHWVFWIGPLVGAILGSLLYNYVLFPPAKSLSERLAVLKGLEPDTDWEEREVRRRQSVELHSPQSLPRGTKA
In words: Inhibition of AQP2 (unknown origin) expressed in CHO cells assessed as reduction in aquaporin-mediated cell Volume change at 10 uM by light scattering based assay.

The target of data set [9] is T2, Aquaporin-1 (Homo sapiens) (UniProt P29972).
T2 sequence (whole entry): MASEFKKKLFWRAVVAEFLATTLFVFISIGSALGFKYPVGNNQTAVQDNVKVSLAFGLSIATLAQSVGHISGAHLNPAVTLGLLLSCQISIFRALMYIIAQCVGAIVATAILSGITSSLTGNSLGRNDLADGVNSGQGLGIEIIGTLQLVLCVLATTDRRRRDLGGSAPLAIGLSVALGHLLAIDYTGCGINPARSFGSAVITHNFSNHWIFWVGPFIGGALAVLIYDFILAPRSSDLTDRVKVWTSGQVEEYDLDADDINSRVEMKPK
The experiment in a line: Inhibition of AQP1 (unknown origin) expressed in CHO cells assessed as reduction in aquaporin-mediated cell Volume shrinkage at 10 uM by light scattering based assay.

For data set [10], the target named is Aquaporin-5 (Homo sapiens) (UniProt P55064). The experiment in a line: Inhibition of AQP5 (unknown origin) expressed in CHO cells assessed as reduction in aquaporin-mediated cell Volume shrinkage at 10 uM by light scattering based assay.
For data set [11], the system named is Mus musculus. In words: Improvement in neurological outcome in intraluminal monofilament mouse model of middle cerebral artery occlusion at 2 mg/kg, ip loading dose and 1 mg/ml at 8 ul/hr maintenance dose. In kind it is functional, organism-based.
Data set [12] deals with Mus musculus. In words: Improvement in neurological outcome in intraluminal monofilament mouse model of middle cerebral artery occlusion assessed as reduction in severe paralysis progress at 2 mg/kg, ip loading dose and 1 mg/ml at 8 ul/hr maintenance dose. Type of data set: functional, organism-based.
Data set [13] concerns Mus musculus. The experiment in a line: Improvement in neurological outcome in intraluminal monofilament mouse model of middle cerebral artery occlusion assessed as reduction in death incidence at 2 mg/kg, ip loading dose and 1 mg/ml at 8 ul/hr maintenance dose. Type of data set: functional, organism-based.
Data set [14] can be described thus: Solubility in water. Type of data set: physicochemical.
The nature of data set [15]: Stability of the compound in pH 7.5 buffer assessed as compound hydrolysis measured over 12 hrs. The settings on record: read-out: Drug degradation. In kind it is physicochemical.
The nature of data set [16]: Stability of the compound in pH 7.5 buffer assessed as compound hydrolysis at room temperature. In kind it is physicochemical. The conditions noted are these: read-out: Drug degradation.
Data set [17] in a line: Drug metabolism in mouse plasma assessed as formation of N-3,5-bis(trifluoromethyl)phenyl-5-chloro-2-hydroxybenzamide measured within 5 mins. In kind it is ADME, cell-free.
A short description of data set [18]: Drug metabolism in mouse plasma assessed as formation of 2-3,5-bis(trifluoromethyl)phenylcarbamoyl-4-chlorophenyl phosphate bis-ethanolamine salt at 10 mg/kg, ip loading dose and 1 mg/ml at 8 ul/hr maintenance dose measured at 15 mins and 24 hrs post dose by LC-MS/MS analysis. The conditions noted are these: in vivo. In kind it is ADME, organism-based.
Data set [19] can be described thus: Drug metabolism in mouse plasma assessed as formation of N-3,5-bis(trifluoromethyl)phenyl-5-chloro-2-hydroxybenzamide at 10 mg/kg, ip loading dose and 1 mg/ml at 8 ul/hr maintenance dose measured at 15 mins and 24 hrs post dose by LC-MS/MS analysis. The settings on record: in vivo. Type of data set: ADME, organism-based.
Data set [20] is described as follows: Drug metabolism in mouse plasma assessed as N-3,5-bis(trifluoromethyl)phenyl-5-chloro-2-hydroxybenzamide level at 10 mg/kg, ip loading dose and 1 mg/ml at 8 ul/hr maintenance dose measured at 15 mins and 24 hrs post dose by LC-MS/MS analysis. Type of data set: ADME, organism-based. The conditions noted are these: in vivo.
The subject of data set [21] is Mus musculus. In words: Drug absorption mouse plasma assessed as rate of drug absorption at 10 mg/kg, ip loading dose and 1 mg/ml at 8 ul/hr maintenance dose measured at 15 mins and 24 hrs post dose by LC-MS/MS analysis. Type of data set: ADME, organism-based. The conditions noted are these: in vivo.
The nature of data set [22]: Drug elimination mouse plasma assessed as rate of drug elimination at 10 mg/kg, ip loading dose and 1 mg/ml at 8 ul/hr maintenance dose measured at 15 mins and 24 hrs post dose by LC-MS/MS analysis. In kind it is ADME, organism-based.
A short description of data set [23]: Stability of the compound in pH 9.5 buffer assessed as compound hydrolysis measured over 12 hrs. Type of data set: physicochemical. The conditions noted are these: read-out: Drug degradation.
A short description of data set [24]: Stability of the compound in pH 9.5 buffer assessed as compound hydrolysis at room temperature. In kind it is physicochemical. The conditions noted are these: read-out: Drug degradation.
Data set [25] in a line: Stability of the compound assessed as compound hydrolysis at room temperature after 5 days. In kind it is physicochemical. The conditions noted are these: read-out: Drug degradation.

Each structure is given as a SMILES string. The source made the active and inactive calls. The calls are words filed in the database; no cut-off is given here. Where only a bound is given, the exact number is not on record here.

Sequence of Aquaporin-4 (Homo sapiens) (P55087 whole entry): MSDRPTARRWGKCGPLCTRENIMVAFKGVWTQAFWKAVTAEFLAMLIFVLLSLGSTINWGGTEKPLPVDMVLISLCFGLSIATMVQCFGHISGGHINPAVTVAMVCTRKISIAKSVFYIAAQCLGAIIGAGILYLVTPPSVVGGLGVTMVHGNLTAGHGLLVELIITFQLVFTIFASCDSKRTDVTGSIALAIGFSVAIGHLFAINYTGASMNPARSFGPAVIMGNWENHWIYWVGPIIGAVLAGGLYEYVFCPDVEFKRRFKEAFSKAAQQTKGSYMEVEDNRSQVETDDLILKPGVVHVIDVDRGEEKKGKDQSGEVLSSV
Sequence of Aquaporin-5 (Homo sapiens) (P55064 whole entry): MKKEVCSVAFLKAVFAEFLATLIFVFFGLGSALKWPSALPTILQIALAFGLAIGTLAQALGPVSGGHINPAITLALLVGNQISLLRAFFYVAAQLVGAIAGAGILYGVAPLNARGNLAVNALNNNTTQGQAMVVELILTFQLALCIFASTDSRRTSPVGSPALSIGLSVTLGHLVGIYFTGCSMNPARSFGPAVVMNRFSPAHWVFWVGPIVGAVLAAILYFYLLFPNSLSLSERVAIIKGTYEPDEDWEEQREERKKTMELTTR

As to `O=C(Nc1cc(C(F)(F)F)cc(C(F)(F)F)c1)c1cc(Cl)ccc1OP(=O)([O-])O.[Na+]`, the Drug degradation in data set [1] came to 1%. In addition, the degraded at 12 h in data set [2] is less than 1%. The degraded in data set [3] is 1%.

As a reminder, the inhibition is the percentage by which the read-out fell short of the control. `O=C(Nc1cc(C(F)(F)F)cc(C(F)(F)F)c1)c1cc(Cl)ccc1O` [IMD-0354]: the Time in data set [4] is 52 min. Further, the inhibition result in [5] and in [7] was “Active” each time. Further, in [6], the Cp fell in the range of 0.03 to 0.06 g.

For the molecule `O=C(Nc1cc(Cl)cc(Cl)c1)c1cc(Cl)ccc1O`, the inhibition in data set [8] is 81%. In addition, the inhibition result in data set [9] and in data set [10] was “inactive” throughout.

Turning to `O=C(Nc1cc(C(F)(F)F)cc(C(F)(F)F)c1)c1cc(Cl)ccc1OP(=O)(O)O` [listing 1 of 2 here], the outcome in data set [11], in [12] and in [13] was Active.

Usually solubility stands for the dissolved amount per volume that the medium holds. Lower therefore signals little dissolved substance. Take `NCCO.NCCO.O=C(Nc1cc(C(F)(F)F)cc(C(F)(F)F)c1)c1cc(Cl)ccc1OP(=O)(O)O`: the solubility in [14] is 10000 µg/mL. For the same molecule, the Drug degradation in [1] was determined as 1%. Also, the degraded at 12 h in [15] is less than 1%. For the same molecule, the degraded in data set [16] worked out at 1%. Besides, the Drug metabolism result is “Metabolite_Detected” in data set [17], “Metabolite_Notdetected” in data set [18], “Metabolite_Detected” in data set [19] and 400 ng/mL in [20]. In addition, the Ka in [21] stood at 0.12 min⁻¹. Also, in data set [22], the k el was 0.000283 s⁻¹.

In data set [14], `O=C(Nc1cc(C(F)(F)F)cc(C(F)(F)F)c1)c1cc(Cl)ccc1OP(=O)([O-])[O-].[Na+].[Na+]` came in with a solubility of 1000 to 10000 µg/mL. Also, the degraded in data set [1] (solid state, read-out: Drug degradation) was determined as 1%; in data set [24], 1%. Besides, the degraded at 12 h in data set [23] is less than 1%.

With `O=C(Nc1cc(C(F)(F)F)cc(C(F)(F)F)c1)c1cc(Cl)ccc1OP(=O)(O)O` [listing 2 of 2 here], the degraded at 120 h in data set [25] was less than 1%.

The record behind these values is ChEMBL document CHEMBL4421726, “Novel prodrug salts” (2016).
